Assay results taken from ChEMBL document CHEMBL4265896, “Design and synthesis of potent RSK inhibitors” (Bioorg Med Chem Lett, 2018).
Converted amounts (≈) assume the structure as drawn.

Legend:
[1] = biological target: T1, Ribosomal protein S6 kinase alpha-3 (Homo sapiens, UniProt P51812); test: Inhibition of RSK2 (unknown origin) assessed as reduction in YB1 […] phosphorylation
[2] = biological target: T1, Ribosomal protein S6 kinase alpha-3; test: Inhibition of RSK2 (unknown origin)
[3] = Solubility of the compound in PBS buffer of pH 7.0; format: physicochemical
[4] = Efflux ratio of permeability of the compound in human Caco2 cells; format: ADME, cell-based; details: Caco-2
[5] = biological target: Ribosomal protein S6 kinase beta-1 (Homo sapiens, UniProt P23443); test: Inhibition of RPS6KB1 (unknown origin)
Chain of Ribosomal protein S6 kinase beta-1 (P23443 whole entry): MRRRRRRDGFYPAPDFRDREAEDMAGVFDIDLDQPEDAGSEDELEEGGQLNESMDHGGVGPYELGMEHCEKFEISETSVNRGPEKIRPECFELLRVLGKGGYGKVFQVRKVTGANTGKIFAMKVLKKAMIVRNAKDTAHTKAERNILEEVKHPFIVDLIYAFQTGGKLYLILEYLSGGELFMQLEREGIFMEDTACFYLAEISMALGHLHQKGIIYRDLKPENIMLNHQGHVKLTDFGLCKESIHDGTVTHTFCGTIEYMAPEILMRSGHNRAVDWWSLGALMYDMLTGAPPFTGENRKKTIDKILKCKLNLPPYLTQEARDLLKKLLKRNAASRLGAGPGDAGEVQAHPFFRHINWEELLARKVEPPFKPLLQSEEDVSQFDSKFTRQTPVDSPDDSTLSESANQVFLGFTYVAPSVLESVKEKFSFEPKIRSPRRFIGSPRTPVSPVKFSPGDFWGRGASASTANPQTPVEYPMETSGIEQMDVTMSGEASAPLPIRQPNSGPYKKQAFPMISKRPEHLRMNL

[6] = biological target: T2, Receptor-type tyrosine-protein kinase FLT3 (Homo sapiens, UniProt P36888); test: Inhibition of FLT3 (unknown origin)
T2 sequence (P36888 whole entry): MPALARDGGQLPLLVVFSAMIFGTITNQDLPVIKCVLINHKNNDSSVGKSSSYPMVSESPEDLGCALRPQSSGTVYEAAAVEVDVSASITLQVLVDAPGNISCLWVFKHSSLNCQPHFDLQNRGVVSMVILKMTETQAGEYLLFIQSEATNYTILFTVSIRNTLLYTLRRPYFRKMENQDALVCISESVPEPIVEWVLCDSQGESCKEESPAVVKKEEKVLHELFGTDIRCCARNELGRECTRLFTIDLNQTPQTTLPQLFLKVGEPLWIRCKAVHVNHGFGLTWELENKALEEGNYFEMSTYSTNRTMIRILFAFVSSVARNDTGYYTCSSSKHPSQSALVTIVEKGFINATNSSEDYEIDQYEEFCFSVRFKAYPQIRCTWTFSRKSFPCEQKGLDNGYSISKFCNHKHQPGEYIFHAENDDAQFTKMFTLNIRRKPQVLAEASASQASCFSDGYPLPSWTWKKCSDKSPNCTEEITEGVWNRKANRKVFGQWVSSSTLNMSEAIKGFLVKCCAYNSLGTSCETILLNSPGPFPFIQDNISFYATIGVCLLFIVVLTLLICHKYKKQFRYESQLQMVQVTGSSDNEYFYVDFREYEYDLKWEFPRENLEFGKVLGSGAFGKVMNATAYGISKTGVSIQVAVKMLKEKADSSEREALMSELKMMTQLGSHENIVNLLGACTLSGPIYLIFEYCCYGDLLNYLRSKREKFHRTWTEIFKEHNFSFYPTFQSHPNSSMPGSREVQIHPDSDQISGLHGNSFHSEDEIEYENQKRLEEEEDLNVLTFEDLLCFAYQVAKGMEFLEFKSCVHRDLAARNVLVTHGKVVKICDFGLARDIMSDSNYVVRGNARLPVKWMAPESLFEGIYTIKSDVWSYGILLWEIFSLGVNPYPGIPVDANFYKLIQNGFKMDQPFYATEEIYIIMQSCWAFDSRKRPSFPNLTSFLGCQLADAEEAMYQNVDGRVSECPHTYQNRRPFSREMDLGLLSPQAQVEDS

[7] = biological target: T3, Tyrosine-protein kinase receptor UFO (Homo sapiens, UniProt P30530); test: Inhibition of AXL (unknown origin)
T3 sequence (P30530 whole entry): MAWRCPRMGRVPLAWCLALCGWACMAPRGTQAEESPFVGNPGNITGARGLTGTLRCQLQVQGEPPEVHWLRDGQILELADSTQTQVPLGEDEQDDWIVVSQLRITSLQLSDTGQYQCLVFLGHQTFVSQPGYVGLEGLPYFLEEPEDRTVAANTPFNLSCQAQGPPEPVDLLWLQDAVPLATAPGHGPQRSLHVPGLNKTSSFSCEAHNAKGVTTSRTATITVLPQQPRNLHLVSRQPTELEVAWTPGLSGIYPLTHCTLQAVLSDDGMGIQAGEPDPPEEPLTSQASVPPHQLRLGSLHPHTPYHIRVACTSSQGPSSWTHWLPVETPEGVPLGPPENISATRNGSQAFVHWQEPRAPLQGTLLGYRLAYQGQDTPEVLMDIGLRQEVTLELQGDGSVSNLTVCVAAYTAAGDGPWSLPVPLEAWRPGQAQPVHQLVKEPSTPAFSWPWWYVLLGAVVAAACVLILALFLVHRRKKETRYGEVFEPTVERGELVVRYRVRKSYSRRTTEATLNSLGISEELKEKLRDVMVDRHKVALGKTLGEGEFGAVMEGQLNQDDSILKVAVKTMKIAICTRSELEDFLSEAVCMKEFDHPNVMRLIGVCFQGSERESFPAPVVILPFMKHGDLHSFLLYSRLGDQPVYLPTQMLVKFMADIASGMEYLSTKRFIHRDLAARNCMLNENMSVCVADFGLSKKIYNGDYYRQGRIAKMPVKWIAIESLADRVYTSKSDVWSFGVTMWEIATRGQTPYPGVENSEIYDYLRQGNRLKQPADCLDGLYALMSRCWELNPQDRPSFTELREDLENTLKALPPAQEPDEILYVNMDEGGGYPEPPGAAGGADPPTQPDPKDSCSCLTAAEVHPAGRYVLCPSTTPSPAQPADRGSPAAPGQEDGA

[8] = biological target: Tyrosine-protein kinase JAK2 (Homo sapiens, UniProt O60674); test: Inhibition of JAK2 (unknown origin)
Chain of Tyrosine-protein kinase JAK2 (O60674 whole entry): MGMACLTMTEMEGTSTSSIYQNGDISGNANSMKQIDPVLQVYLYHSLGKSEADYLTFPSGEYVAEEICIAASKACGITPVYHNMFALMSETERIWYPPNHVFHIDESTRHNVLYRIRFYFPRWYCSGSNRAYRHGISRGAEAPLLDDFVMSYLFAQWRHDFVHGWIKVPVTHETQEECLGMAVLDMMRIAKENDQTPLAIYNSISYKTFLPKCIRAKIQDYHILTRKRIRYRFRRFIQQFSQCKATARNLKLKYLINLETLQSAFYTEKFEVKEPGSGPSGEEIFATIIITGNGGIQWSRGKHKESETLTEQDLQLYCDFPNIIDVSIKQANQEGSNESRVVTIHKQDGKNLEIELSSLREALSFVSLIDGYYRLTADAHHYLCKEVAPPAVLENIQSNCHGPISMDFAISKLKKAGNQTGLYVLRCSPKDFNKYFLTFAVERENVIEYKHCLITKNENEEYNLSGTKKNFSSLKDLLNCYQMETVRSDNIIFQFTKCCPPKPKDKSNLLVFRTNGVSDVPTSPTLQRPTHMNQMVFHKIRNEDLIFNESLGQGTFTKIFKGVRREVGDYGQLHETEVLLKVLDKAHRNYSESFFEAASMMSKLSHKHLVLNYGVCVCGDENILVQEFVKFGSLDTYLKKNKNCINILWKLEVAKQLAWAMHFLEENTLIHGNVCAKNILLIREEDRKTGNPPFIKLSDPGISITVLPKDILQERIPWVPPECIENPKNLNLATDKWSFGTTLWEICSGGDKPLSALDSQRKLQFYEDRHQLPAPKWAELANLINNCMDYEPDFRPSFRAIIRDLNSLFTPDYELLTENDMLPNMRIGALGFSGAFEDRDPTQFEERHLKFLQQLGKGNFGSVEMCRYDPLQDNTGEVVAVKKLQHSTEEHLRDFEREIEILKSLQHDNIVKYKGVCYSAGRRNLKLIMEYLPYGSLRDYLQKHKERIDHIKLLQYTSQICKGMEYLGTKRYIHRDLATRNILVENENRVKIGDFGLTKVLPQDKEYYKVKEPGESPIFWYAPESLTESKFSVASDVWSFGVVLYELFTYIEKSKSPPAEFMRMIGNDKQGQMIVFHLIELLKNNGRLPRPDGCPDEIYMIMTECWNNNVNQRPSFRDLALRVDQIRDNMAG

[9] = biological target: Proto-oncogene tyrosine-protein kinase receptor Ret (Homo sapiens, UniProt P07949); test: Inhibition of RET (unknown origin)
Chain of Proto-oncogene tyrosine-protein kinase receptor Ret (P07949 whole entry): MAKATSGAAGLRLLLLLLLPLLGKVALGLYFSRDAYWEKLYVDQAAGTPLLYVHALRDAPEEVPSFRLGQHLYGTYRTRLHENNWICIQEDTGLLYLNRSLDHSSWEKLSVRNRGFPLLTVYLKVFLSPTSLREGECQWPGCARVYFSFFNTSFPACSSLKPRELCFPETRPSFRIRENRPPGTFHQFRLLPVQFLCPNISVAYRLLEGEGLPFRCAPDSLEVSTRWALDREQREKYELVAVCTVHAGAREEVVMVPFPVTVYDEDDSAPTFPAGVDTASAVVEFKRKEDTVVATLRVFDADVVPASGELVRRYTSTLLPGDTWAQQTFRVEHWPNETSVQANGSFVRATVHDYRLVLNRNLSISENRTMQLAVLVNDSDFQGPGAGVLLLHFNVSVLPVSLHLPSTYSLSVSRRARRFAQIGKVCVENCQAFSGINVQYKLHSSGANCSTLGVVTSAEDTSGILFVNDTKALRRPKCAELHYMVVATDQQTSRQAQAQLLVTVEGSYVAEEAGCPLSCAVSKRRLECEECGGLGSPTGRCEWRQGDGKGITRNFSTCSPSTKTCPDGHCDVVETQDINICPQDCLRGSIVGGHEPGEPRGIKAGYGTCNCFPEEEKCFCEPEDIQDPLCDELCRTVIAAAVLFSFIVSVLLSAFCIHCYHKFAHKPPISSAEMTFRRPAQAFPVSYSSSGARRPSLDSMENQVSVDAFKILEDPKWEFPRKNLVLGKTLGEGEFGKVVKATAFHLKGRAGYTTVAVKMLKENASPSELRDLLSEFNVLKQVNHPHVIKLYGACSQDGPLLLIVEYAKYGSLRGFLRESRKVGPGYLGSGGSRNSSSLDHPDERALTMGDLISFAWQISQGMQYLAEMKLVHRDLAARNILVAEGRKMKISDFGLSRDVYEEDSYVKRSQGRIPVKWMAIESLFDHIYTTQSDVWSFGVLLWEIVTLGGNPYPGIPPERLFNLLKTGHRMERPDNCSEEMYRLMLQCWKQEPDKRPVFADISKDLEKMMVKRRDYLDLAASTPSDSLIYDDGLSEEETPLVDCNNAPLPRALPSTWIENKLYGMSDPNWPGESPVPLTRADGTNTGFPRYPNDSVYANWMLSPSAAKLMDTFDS

[10] = biological target: Tyrosine-protein kinase JAK1 (Homo sapiens, UniProt P23458); test: Inhibition of JAK1 (unknown origin)
Chain of Tyrosine-protein kinase JAK1 (P23458 whole entry): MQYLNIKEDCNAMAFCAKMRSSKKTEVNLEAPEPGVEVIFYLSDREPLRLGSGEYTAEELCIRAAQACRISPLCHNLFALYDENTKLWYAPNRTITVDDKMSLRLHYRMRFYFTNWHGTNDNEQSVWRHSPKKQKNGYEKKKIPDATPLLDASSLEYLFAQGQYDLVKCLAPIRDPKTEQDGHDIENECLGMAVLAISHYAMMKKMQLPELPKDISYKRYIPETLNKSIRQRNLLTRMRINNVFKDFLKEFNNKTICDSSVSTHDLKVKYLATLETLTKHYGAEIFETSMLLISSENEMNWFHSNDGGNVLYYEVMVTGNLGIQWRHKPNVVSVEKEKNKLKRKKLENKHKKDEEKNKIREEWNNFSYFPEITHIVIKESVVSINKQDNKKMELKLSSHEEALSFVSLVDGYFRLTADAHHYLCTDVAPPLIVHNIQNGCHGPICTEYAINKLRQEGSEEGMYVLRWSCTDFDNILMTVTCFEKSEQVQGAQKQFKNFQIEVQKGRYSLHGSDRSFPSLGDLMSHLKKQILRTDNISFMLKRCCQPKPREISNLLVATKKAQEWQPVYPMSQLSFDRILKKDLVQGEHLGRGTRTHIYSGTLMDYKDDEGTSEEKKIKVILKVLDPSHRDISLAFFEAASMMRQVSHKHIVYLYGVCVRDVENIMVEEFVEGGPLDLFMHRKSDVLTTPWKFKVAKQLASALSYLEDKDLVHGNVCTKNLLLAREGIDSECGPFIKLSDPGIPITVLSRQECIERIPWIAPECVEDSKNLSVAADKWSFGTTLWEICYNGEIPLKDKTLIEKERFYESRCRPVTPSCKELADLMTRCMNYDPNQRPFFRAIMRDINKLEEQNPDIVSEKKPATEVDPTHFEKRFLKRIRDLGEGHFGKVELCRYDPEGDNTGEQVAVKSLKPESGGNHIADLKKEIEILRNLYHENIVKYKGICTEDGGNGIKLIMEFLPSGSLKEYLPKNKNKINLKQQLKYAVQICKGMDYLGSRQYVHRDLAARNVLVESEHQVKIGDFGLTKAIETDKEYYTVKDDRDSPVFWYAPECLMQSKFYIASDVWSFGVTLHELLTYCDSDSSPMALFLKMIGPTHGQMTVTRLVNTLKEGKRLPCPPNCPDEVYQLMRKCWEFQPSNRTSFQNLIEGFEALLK

[11] = biological target: Vascular endothelial growth factor receptor 2 (Homo sapiens, UniProt P35968); test: Inhibition of KDR (unknown origin)
[12] = biological target: Fibroblast growth factor receptor 1 (Homo sapiens, UniProt P11362); test: Inhibition of FGFR1 (unknown origin)
[13] = biological target: Fibroblast growth factor receptor 2 (Homo sapiens, UniProt P21802); test: Inhibition of FGFR2 (unknown origin)

T1 sequence (P51812 whole entry): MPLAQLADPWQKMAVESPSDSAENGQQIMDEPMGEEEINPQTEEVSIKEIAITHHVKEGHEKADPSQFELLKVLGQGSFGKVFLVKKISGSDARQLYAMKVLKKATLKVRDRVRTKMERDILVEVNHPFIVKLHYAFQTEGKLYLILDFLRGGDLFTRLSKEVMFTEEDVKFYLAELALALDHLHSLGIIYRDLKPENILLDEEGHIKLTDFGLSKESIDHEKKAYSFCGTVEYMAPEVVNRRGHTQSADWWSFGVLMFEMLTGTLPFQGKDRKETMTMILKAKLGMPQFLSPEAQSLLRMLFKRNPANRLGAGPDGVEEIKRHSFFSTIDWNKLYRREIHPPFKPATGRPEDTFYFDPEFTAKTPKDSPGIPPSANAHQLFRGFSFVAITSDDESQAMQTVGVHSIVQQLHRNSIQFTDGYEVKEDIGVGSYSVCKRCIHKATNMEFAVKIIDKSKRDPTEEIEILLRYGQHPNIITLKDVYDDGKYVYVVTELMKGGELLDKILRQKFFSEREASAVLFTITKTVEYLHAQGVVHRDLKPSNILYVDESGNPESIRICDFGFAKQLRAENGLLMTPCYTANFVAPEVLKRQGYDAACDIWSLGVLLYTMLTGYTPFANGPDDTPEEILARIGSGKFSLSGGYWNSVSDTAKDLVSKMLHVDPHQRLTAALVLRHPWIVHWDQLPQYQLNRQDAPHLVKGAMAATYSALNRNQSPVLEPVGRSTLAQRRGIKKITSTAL

Oc1ccc(-c2cn[nH]c2-c2ccc(O)cc2)cc1
IC50 [1]: 2800 nM
IC50 [2]: 20 nM

CN1CCN(c2ccc(-c3ccncc3-c3cc(F)c(O)c(F)c3)cc2)CC1
IC50 [1]: 340 nM

Oc1c(F)cc(-c2cnccc2-c2ccc(N3CCOCC3)cc2)cc1F
IC50 [1]: 210 nM

COc1c(F)cc(-c2cnc3[nH]ccc3c2-c2ccc(N3CCN(C)CC3)cc2)cc1F
IC50 [1]: > 20000 nM
IC50 [2]: 500 nM

CN1CCN(c2ccc(-c3c(-c4ccc(C(F)F)cc4)cnc4[nH]ccc34)cc2)CC1
IC50 [1]: 18100 nM
IC50 [2]: 800 nM

Oc1c(F)cc(-c2cnc3[nH]ccc3c2-c2ccc(N3CCOCC3)cc2)cc1F
solubility [3]: < 0.22 µg/mL
IC50 [1]: 50 nM
IC50 [2]: 2 nM

CN1CCN(c2ccc(-c3c(-c4cn[nH]c4)cnc4[nH]ccc34)cc2)CC1
IC50 [1]: 2400 nM
IC50 [2]: 240 nM

CN1CCN(c2ccc(-c3c(-c4cc(F)cc(F)c4)cnc4[nH]ccc34)cc2)CC1
IC50 [1]: 6000 nM
IC50 [2]: 38 nM

CN1CCN(c2ccc(-c3c(-c4ccc(F)cc4)cnc4[nH]ccc34)cc2)CC1
IC50 [1]: > 20000 nM
IC50 [2]: 1900 nM

CN1CCN(c2ccc(-c3c(-c4ccnc(F)c4)cnc4[nH]ccc34)cc2)CC1
IC50 [1]: > 20000 nM
IC50 [2]: 1100 nM

CN1CCN(c2ccc(-c3c(-c4ccc(N)nc4)cnc4[nH]ccc34)cc2)CC1
IC50 [1]: 7200 nM
IC50 [2]: 810 nM

Cc1ccc(-c2c(-c3cc(F)c(O)c(F)c3)cnc3[nH]ccc23)cc1
IC50 [1]: 232 nM
IC50 [2]: 2 nM

CN1CCN(c2ccc(-c3c(-c4cc(F)c(O)c(F)c4)cnc4[nH]ccc34)cc2)CC1
efflux ratio [4]: 0.8
solubility [3]: 10.3 µg/mL (≈ 24.5 µM)
IC50 [5]: 120 nM
IC50 [6]: 120 nM
IC50 [7]: < 1000 nM
IC50 [8]: < 1000 nM
IC50 [1]: 54 nM
IC50 [2]: 0.3 nM
IC50 [9]: < 1000 nM
IC50 [10]: < 1000 nM
IC50 [11]: < 1000 nM
IC50 [12]: < 1000 nM
IC50 [13]: < 1000 nM
